Values quoted from earlier work as cited in US20200222451A1, “Composition” (Optibiotix Limited, priority 2017, published 2020).

Conditions: compared to placebo

Question: Which fat cravings (P<0.0001) does the source give for chromium picolinate here?
Answer: The fat cravings was “reduces”.

Question: What about the food intake (P<0.0001) of the same substance?
Answer: Its food intake is “reduces”.

Question: What about the hunger levels (P<0.05) of the same substance?
Answer: The hunger levels was “reduces”.

Question: And the body weight (P<0.08)?
Answer: Its body weight is “decrease”.
